Assay results taken from PMC11842588, “A first-in-class selective inhibitor of ERK1/2 and ERK5 overcomes drug resistance with a single-molecule strategy” (Signal Transduction and Targeted Therapy, 2025).

How the values were obtained:
Assay in all cases: Kinase profiling
Type in all cases: biochemical
AMPKα1(h) = target: T1, AMPKα1(h) (Homo sapiens, UniProt Q13131)
T1 construct: purchased Eurofins Cerep SA (KinaseProfiler)
Description: (§1) 380 kinases inhibitory activities of SKLB-D18 were conducted by Eurofins Cerep SA. The result was illustrated by kinase tree (http://www.kinhub.org/kinmap/).

Abl(h) = target: T2, Abl(h) (Homo sapiens, UniProt P00519)
T2 construct: purchased Eurofins Cerep SA (KinaseProfiler)
Description: as §1

BIKe(h) = target: T3, BIKe(h) (Homo sapiens, UniProt Q9NSY1)
T3 construct: purchased Eurofins Cerep SA (KinaseProfiler)
Description: as §1

BMPR2(h) = target: T4, BMPR2(h) (Homo sapiens, UniProt Q13873)
T4 construct: purchased Eurofins Cerep SA (KinaseProfiler)
Description: as §1

Bmx(h) = target: T5, Bmx(h) (Homo sapiens, UniProt P51813)
T5 construct: purchased Eurofins Cerep SA (KinaseProfiler)
Description: as §1

CDK17/cyclinY(h) = target: T6, CDK17/cyclinY(h) (Homo sapiens, UniProt Q00537)
T6 construct: purchased Eurofins Cerep SA (KinaseProfiler)
Description: as §1

CDKL3(h) = target: T7, CDKL3(h) (Homo sapiens, UniProt Q8IVW4)
T7 construct: purchased Eurofins Cerep SA (KinaseProfiler)
Description: as §1

CK1γ3(h) = target: T8, CK1γ3(h) (Homo sapiens, UniProt Q9Y6M4)
T8 construct: purchased Eurofins Cerep SA (KinaseProfiler)
Description: as §1

CaMKIV(h) = target: T9, CaMKIV(h) (Homo sapiens, UniProt Q16566)
T9 construct: purchased Eurofins Cerep SA (KinaseProfiler)
Description: as §1

EphB1(h) = target: T10, EphB1(h) (Homo sapiens, UniProt P54762)
T10 construct: purchased Eurofins Cerep SA (KinaseProfiler)
Description: as §1

Flt3(h) = target: T11, Flt3(h) (Homo sapiens, UniProt P36888)
T11 construct: purchased Eurofins Cerep SA (KinaseProfiler)
Description: as §1

GRK1(h) = target: T12, GRK1(h) (Homo sapiens, UniProt Q15835)
T12 construct: purchased Eurofins Cerep SA (KinaseProfiler)
Description: as §1

GRK3(h) = target: T13, GRK3(h) (Homo sapiens, UniProt P35626)
T13 construct: purchased Eurofins Cerep SA (KinaseProfiler)
Description: as §1

GRK6(h) = target: T14, GRK6(h) (Homo sapiens, UniProt P43250)
T14 construct: purchased Eurofins Cerep SA (KinaseProfiler)
Description: as §1

GSK3β(h) = target: T15, GSK3β(h) (Homo sapiens, UniProt P49841)
T15 construct: purchased Eurofins Cerep SA (KinaseProfiler)
Description: as §1

HIPK3(h) = target: T16, HIPK3(h) (Homo sapiens, UniProt Q9H422)
T16 construct: purchased Eurofins Cerep SA (KinaseProfiler)
Description: as §1

IGF-1R(h) = target: T17, IGF-1R(h) (Homo sapiens, UniProt P08069)
T17 construct: purchased Eurofins Cerep SA (KinaseProfiler)
Description: as §1

JNK3(h) = target: T18, JNK3(h) (Homo sapiens, UniProt P53779)
T18 construct: purchased Eurofins Cerep SA (KinaseProfiler)
Description: as §1

KDR(h) = target: T19, KDR(h) (Homo sapiens, UniProt P35968)
T19 construct: purchased Eurofins Cerep SA (KinaseProfiler)
Description: as §1

LTK(h) = target: T20, LTK(h) (Homo sapiens, UniProt P29376)
T20 construct: purchased Eurofins Cerep SA (KinaseProfiler)
Description: as §1

MAK(h) = target: T21, MAK(h) (Homo sapiens, UniProt P20794)
T21 construct: purchased Eurofins Cerep SA (KinaseProfiler)
Description: as §1

MEKK3(h) = target: T22, MEKK3(h) (Homo sapiens, UniProt Q99759)
T22 construct: purchased Eurofins Cerep SA (KinaseProfiler)
Description: as §1

MLK1(h) = target: T23, MLK1(h) (Homo sapiens, UniProt P80192)
T23 construct: purchased Eurofins Cerep SA (KinaseProfiler)
Description: as §1

MRCKγ(h) = target: T24, MRCKγ(h) (Homo sapiens, UniProt Q6DT37)
T24 construct: purchased Eurofins Cerep SA (KinaseProfiler)
Description: as §1

NUAK2(h) = target: T25, NUAK2(h) (Homo sapiens, UniProt Q9H093)
T25 construct: purchased Eurofins Cerep SA (KinaseProfiler)
Description: as §1

PDHK4(h) = target: T26, PDHK4(h) (Homo sapiens, UniProt Q16654)
T26 construct: purchased Eurofins Cerep SA (KinaseProfiler)
Description: as §1

[1] = target: T27, PI3 Kinase (p110d/p85a)(h) (Homo sapiens, UniProt O00329)
T27 construct: purchased Eurofins Cerep SA (KinaseProfiler)
Description: as §1

PKCβI(h) = target: T28, PKCβI(h) (Homo sapiens, UniProt P05771)
T28 construct: purchased Eurofins Cerep SA (KinaseProfiler)
Description: as §1

PKCζ(h) = target: T29, PKCζ(h) (Homo sapiens, UniProt Q05513)
T29 construct: purchased Eurofins Cerep SA (KinaseProfiler)
Description: as §1

PRK2(h) = target: T30, PRK2(h) (Homo sapiens, UniProt Q16513)
T30 construct: purchased Eurofins Cerep SA (KinaseProfiler)
Description: as §1

RIPK1(h) = target: T31, RIPK1(h) (Homo sapiens, UniProt Q13546)
T31 construct: purchased Eurofins Cerep SA (KinaseProfiler)
Description: as §1

ROCK-II(h) = target: T32, ROCK-II(h) (Homo sapiens, UniProt O75116)
T32 construct: purchased Eurofins Cerep SA (KinaseProfiler)
Description: as §1

Ret(h) = target: T33, Ret(h) (Homo sapiens, UniProt P07949)
T33 construct: purchased Eurofins Cerep SA (KinaseProfiler)
Description: as §1

Rsk2(h) = target: T34, Rsk2(h) (Homo sapiens, UniProt P51812)
T34 construct: purchased Eurofins Cerep SA (KinaseProfiler)
Description: as §1

SAPK4(h) = target: T35, SAPK4(h) (Homo sapiens, UniProt O15264)
T35 construct: purchased Eurofins Cerep SA (KinaseProfiler)
Description: as §1

SRMS(h) = target: T36, SRMS(h) (Homo sapiens, UniProt Q9H3Y6)
T36 construct: purchased Eurofins Cerep SA (KinaseProfiler)
Description: as §1

TAF1L(h) = target: T37, TAF1L(h) (Homo sapiens, UniProt Q8IZX4)
T37 construct: purchased Eurofins Cerep SA (KinaseProfiler)
Description: as §1

TGFBR1(h) = target: T38, TGFBR1(h) (Homo sapiens, UniProt P36897)
T38 construct: purchased Eurofins Cerep SA (KinaseProfiler)
Description: as §1

WNK1(h) = target: T39, WNK1(h) (Homo sapiens, UniProt Q9H4A3)
T39 construct: purchased Eurofins Cerep SA (KinaseProfiler)
Description: as §1

WNK3(h) = target: T40, WNK3(h) (Homo sapiens, UniProt Q9BYP7)
T40 construct: purchased Eurofins Cerep SA (KinaseProfiler)
Description: as §1

mTOR(h) = target: T41, mTOR(h) (Homo sapiens, UniProt P42345)
T41 construct: purchased Eurofins Cerep SA (KinaseProfiler)
Description: as §1

T15 sequence (P49841 whole entry): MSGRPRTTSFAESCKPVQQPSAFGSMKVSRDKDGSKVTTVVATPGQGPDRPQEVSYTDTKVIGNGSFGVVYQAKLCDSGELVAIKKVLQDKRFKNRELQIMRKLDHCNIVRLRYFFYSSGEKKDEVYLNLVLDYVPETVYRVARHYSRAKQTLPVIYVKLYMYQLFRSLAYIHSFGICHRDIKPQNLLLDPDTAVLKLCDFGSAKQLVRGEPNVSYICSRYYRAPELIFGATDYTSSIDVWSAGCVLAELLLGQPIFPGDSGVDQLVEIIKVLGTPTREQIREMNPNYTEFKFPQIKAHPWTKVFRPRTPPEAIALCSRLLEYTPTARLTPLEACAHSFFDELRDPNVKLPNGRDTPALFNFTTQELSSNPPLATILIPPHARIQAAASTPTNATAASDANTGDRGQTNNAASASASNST
T37 sequence (Q8IZX4 whole entry): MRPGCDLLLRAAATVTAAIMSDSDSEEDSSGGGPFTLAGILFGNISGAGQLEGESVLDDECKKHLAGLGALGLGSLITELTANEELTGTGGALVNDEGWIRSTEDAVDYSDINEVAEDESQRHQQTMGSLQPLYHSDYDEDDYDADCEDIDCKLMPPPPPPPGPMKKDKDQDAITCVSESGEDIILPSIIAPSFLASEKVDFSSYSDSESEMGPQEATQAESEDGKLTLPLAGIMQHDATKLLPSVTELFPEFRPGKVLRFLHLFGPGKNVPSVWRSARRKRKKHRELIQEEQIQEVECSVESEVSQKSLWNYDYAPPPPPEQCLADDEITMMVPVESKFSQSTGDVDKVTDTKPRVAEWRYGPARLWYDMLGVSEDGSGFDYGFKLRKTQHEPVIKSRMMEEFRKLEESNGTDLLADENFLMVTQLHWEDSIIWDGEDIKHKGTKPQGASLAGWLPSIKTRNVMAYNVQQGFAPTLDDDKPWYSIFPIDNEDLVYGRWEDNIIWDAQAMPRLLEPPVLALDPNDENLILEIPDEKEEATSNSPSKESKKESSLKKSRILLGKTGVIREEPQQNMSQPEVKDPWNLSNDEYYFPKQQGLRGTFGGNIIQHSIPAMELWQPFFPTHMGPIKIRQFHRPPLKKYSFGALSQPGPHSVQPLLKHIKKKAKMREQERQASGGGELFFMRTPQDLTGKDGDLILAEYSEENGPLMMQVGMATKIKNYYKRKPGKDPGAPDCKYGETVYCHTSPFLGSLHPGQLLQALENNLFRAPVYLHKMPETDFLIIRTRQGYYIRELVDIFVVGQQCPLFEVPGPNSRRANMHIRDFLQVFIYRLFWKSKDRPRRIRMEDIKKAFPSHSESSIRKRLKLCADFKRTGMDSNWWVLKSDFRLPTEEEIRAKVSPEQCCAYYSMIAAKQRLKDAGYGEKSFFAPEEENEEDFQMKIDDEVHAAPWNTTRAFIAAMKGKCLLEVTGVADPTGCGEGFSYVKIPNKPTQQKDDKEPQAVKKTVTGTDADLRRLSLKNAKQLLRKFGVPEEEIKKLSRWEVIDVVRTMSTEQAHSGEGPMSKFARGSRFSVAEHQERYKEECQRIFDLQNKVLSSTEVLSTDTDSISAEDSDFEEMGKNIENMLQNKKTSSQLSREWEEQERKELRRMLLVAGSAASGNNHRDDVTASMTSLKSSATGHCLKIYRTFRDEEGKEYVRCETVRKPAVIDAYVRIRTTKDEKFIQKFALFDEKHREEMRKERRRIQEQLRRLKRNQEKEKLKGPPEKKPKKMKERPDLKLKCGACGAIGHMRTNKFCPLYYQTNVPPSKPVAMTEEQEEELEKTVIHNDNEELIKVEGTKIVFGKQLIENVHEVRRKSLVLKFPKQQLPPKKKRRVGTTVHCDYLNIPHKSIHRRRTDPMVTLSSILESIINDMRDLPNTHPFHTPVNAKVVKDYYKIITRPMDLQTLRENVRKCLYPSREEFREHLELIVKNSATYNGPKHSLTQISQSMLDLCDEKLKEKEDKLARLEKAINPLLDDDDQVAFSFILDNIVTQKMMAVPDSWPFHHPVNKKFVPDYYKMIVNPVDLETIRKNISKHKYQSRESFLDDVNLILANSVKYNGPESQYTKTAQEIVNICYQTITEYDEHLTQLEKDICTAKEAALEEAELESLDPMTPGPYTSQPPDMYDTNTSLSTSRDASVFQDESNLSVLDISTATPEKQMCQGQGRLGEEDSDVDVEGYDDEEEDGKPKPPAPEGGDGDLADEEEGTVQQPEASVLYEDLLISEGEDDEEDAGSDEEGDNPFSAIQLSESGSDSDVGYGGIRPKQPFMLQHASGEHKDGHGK
T26 sequence (Q16654 whole entry): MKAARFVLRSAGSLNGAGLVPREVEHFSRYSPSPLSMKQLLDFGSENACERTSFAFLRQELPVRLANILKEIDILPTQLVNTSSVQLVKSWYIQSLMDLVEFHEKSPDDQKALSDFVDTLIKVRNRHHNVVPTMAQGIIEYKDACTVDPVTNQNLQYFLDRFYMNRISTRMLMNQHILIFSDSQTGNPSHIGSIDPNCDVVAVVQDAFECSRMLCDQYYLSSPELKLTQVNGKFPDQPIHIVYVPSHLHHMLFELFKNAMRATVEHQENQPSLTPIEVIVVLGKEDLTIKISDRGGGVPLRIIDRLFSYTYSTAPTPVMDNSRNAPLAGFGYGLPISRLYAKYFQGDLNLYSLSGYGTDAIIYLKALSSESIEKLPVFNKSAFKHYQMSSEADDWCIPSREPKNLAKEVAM
T29 sequence (Q05513 whole entry): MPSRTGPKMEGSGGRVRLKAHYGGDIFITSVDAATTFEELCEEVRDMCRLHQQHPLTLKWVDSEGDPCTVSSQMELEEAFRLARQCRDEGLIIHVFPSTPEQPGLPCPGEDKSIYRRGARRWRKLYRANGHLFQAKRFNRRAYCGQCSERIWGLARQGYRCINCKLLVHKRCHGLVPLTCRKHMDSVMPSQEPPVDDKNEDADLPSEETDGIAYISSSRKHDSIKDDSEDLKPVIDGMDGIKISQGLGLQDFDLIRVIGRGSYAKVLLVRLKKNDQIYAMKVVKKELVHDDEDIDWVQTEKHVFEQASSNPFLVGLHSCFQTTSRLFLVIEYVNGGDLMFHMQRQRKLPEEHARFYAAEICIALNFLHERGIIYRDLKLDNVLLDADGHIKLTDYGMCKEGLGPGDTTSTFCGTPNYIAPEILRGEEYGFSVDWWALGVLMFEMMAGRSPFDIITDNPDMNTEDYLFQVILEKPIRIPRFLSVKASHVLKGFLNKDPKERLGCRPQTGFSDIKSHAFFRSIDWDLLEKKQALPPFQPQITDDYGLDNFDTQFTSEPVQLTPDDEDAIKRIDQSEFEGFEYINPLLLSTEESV
T30 sequence (Q16513 whole entry): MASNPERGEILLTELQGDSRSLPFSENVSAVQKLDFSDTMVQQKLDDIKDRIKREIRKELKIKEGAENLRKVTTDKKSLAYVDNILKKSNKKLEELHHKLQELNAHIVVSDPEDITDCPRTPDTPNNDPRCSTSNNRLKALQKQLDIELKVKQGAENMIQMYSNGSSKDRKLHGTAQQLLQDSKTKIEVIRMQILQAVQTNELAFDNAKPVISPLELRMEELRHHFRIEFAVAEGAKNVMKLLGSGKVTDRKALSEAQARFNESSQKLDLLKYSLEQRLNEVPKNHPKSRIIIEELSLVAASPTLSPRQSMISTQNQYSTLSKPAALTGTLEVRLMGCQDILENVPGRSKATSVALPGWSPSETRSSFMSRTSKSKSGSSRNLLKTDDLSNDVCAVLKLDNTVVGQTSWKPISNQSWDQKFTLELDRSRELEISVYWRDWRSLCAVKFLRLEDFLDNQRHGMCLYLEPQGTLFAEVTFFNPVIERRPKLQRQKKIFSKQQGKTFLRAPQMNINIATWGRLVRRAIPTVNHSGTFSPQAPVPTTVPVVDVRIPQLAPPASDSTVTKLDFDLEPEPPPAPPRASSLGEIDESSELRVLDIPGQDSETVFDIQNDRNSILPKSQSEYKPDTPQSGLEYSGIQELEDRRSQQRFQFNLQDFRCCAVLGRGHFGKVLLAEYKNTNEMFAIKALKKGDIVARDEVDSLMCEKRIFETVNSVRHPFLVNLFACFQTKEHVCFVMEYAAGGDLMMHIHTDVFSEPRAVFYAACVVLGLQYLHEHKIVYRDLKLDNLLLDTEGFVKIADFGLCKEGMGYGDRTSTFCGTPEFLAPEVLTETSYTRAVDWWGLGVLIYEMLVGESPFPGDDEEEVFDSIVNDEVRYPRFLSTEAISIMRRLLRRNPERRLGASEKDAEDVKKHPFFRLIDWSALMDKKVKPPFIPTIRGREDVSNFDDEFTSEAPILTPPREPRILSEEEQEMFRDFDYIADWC
T7 sequence (Q8IVW4 whole entry): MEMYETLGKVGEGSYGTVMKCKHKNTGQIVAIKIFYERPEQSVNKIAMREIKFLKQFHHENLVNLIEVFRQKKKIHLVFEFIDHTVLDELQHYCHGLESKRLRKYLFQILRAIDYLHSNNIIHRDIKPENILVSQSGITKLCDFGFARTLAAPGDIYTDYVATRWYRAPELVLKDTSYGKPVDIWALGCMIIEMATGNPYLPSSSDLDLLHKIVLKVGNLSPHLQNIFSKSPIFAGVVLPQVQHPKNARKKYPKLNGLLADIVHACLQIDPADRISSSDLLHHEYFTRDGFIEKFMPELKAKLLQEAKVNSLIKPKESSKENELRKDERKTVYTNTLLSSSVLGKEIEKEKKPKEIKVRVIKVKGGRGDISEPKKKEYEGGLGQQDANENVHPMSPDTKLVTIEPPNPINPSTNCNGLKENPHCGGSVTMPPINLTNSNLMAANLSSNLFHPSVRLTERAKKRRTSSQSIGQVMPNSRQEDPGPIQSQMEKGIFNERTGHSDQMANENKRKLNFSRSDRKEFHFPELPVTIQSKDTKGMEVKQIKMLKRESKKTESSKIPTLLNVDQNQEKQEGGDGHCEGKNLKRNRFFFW

Compound: CN(C)Cc1cccc(Nc2ncc(Cl)c(-c3csc(C(=O)NN4CCOCC4)c3)n2)c1 [SKLB-D18, 4-(5-chloro-2-((3-((dimethylamino)methyl)phenyl)amino)pyrimidin-4-yl)-N-morpholinothiophene-2-carboxamide]
- inhibition at 1 µM (AMPKα1(h)): 61%
- inhibition at 1 µM (Abl(h)): 45%
- inhibition at 1 µM (BIKe(h)): 52%
- inhibition at 1 µM (BMPR2(h)): 21%
- inhibition at 1 µM (Bmx(h)): 46%
- inhibition at 1 µM (CDK17/cyclinY(h)): 57%
- inhibition at 1 µM (CDKL3(h)): 54%
- inhibition at 1 µM (CK1γ3(h)): 14%
- inhibition at 1 µM (CaMKIV(h)): 24%
- inhibition at 1 µM (EphB1(h)): 23%
- inhibition at 1 µM (Flt3(h)): 55%
- inhibition at 1 µM (GRK1(h)): 9%
- inhibition at 1 µM (GRK3(h)): 2%
- inhibition at 1 µM (GRK6(h)): 2%
- inhibition at 1 µM (GSK3β(h)): 68%
- inhibition at 1 µM (HIPK3(h)): 64%
- inhibition at 1 µM (IGF-1R(h)): 7%
- inhibition at 1 µM (JNK3(h)): 66%
- inhibition at 1 µM (KDR(h)): 66%
- inhibition at 1 µM (LTK(h)): 38%
- inhibition at 1 µM (MAK(h)): 46%
- inhibition at 1 µM (MEKK3(h)): 8%
- inhibition at 1 µM (MLK1(h)): 61%
- inhibition at 1 µM (MRCKγ(h)): 34%
- inhibition at 1 µM (NUAK2(h)): 67%
- inhibition at 1 µM (PDHK4(h)): 5%
- inhibition at 1 µM [1]: 0%
- inhibition at 1 µM (PKCβI(h)): 12%
- inhibition at 1 µM (PKCζ(h)): -15%
- inhibition at 1 µM (PRK2(h)): 64%
- inhibition at 1 µM (RIPK1(h)): 9%
- inhibition at 1 µM (ROCK-II(h)): 34%
- inhibition at 1 µM (Ret(h)): 81%
- inhibition at 1 µM (Rsk2(h)): 41%
- inhibition at 1 µM (SAPK4(h)): 53%
- inhibition at 1 µM (SRMS(h)): 11%
- inhibition at 1 µM (TAF1L(h)): 53%
- inhibition at 1 µM (TGFBR1(h)): 20%
- inhibition at 1 µM (WNK1(h)): 12%
- inhibition at 1 µM (WNK3(h)): 9%
- inhibition at 1 µM (mTOR(h)): -4%
